Results taken from patent publication US10597388B2, “Pyridazinone herbicides” (FMC CORPORATION, priority 2014, dated 2020).

Assays:
Experiment in all cases: Test D controlled growth environment herbicide test, pre- and postemergence
Type in all cases: in vivo
[1] = test system: galium (catchweed bedstraw, Galium aparine)
Outline: (§1)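 Rating is visual, 0–100 scale (100 = complete control), made against untreated plants 14–21 d after treatment in controlled growth conditions. Postemergence sprays went onto 1- to 4-leaf plants in peat medium; preemergence sprays onto silt loam after sowing; formulation included a surfactant.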

[2] = test system: pigweed (Amaranthus retroflexus)
Outline: as §1

[3] = test system: wheat, spring (spring wheat, Triticum aestivum)
Outline: as §1

[4] = test system: field violet (Viola arvensis)
Outline: as §1

[5] = test system: chickweed (common chickweed, Stellaria media)
Outline: as §1

[6] = test system: oat, wild (wild oat, Avena fatua)
Outline: as §1

[7] = test system: buckwheat, wild (wild buckwheat, Polygonum convolvulus)
Outline: as §1

[8] = test system: oilseed rape (Brassica napus)
Outline: as §1

[9] = test system: Russian thistle (Salsola kali)
Outline: as §1

[10] = test system: canarygrass (Phalaris minor)
Outline: as §1

[11] = test system: barley, spring (spring barley, Hordeum vulgare)
Outline: as §1

kochia (Kochia scoparia) = test system: kochia (Kochia scoparia)
Outline: as §1

[12] = test system: wheat, winter (winter wheat, Triticum aestivum)
Outline: as §1

[13] = Postemergence, 31 g ai/ha, scale 0 to 100 (0 no effect, 100 complete control)
[14] = Postemergence, 125 g ai/ha, visual rating on scale 0 (no effect) to 100 (complete control), 14 to 21 d
[15] = Postemergence, 250 g ai/ha, scale 0 to 100 (0 no effect, 100 complete control)
[16] = Preemergence, 62 g ai/ha, scale 0 to 100 (0 no effect, 100 complete control)
[17] = Preemergence, 125 g ai/ha, scale 0 to 100 (0 no effect, 100 complete control)
[18] = Preemergence, 250 g ai/ha, scale 0 to 100, 0 no effect, 100 complete control
[19] = postemergence, 62 g ai/ha, scale 0 to 100, 0 no effect, 100 complete control

Cc1nn(C)c(=O)c(-c2ccc(Br)c3ccccc23)c1O [Compound 75]
Galium plant response rating [1, 13]: 90 | Plant response rating, Galium [1, 14]: 95 | Plant response rating, Galium [1, 15]: 100 | Plant response rating (scale of 0 to 100), Galium ([1]; Preemergence, 31 g ai/ha): 15 | Plant response rating, Galium [1, 16]: 50 | Plant response rating, Galium [1, 17]: 60 | Plant response rating, Galium [1, 18]: 80 | Plant response rating, Galium [1, 19]: 95 | Pigweed plant response rating [2, 13]: 100 | Plant response rating, Pigweed [2, 14]: 100 | Plant response rating, Pigweed [2, 15]: 100 | Plant response rating (scale of 0 to 100), Pigweed ([2]; Preemergence, 31 g ai/ha): 85 | Plant response rating, Pigweed [2, 16]: 100 | Plant response rating, Pigweed [2, 17]: 100 | Plant response rating, Pigweed [2, 18]: 100 | Plant response rating, Pigweed [2, 19]: 100 | Wheat, Spring plant response rating [3, 13]: 0 | Plant response rating, Wheat, Spring [3, 14]: 5 | Plant response rating, Wheat, Spring [3, 15]: 15 | Plant response rating (scale of 0 to 100), Wheat, Spring ([3]; Preemergence, 31 g ai/ha): 0 | Plant response rating, Wheat, Spring [3, 16]: 25 | Plant response rating, Wheat, Spring [3, 17]: 35 | Plant response rating, Wheat, Spring [3, 18]: 45 | Plant response rating, Wheat, Spring [3, 19]: 0 | Field Violet plant response rating [4, 13]: 95 | Plant response rating, Field Violet [4, 14]: 95 | Plant response rating, Field Violet [4, 15]: 100 | Plant response rating (scale of 0 to 100), Field Violet ([4]; Preemergence, 31 g ai/ha): 95 | Plant response rating, Field Violet [4, 16]: 100 | Plant response rating, Field Violet [4, 17]: 100 | Plant response rating, Field Violet [4, 18]: 100 | Plant response rating, Field Violet [4, 19]: 100 | Chickweed plant response rating [5, 13]: 100 | Plant response rating, Chickweed [5, 14]: 100 | Plant response rating, Chickweed [5, 15]: 100 | Plant response rating (scale of 0 to 100), Chickweed ([5]; Preemergence, 31 g ai/ha): 90 | Plant response rating, Chickweed [5, 16]: 100 | Plant response rating, Chickweed [5, 17]: 95 | Plant response rating, Chickweed [5, 18]: 100 | Plant response rating, Chickweed [5, 19]: 100 | Oat, Wild plant response rating [6, 13]: 50 | Plant response rating, Oat, Wild [6, 14]: 85 | Plant response rating, Oat, Wild [6, 15]: 80 | Plant response rating (scale of 0 to 100), Oat, Wild ([6]; Preemergence, 31 g ai/ha): 55 | Plant response rating, Oat, Wild [6, 16]: 65 | Plant response rating, Oat, Wild [6, 17]: 80 | Plant response rating, Oat, Wild [6, 18]: 85 | Plant response rating, Oat, Wild [6, 19]: 70 | Buckwheat, Wild plant response rating [7, 13]: 100 | Plant response rating, Buckwheat, Wild [7, 14]: 100 | Plant response rating, Buckwheat, Wild [7, 15]: 100 | Plant response rating (scale of 0 to 100), Buckwheat, Wild ([7]; Preemergence, 31 g ai/ha): 0 | Plant response rating, Buckwheat, Wild [7, 16]: 0 | Plant response rating, Buckwheat, Wild [7, 17]: 0 | Plant response rating, Buckwheat, Wild [7, 18]: 50 | Plant response rating, Buckwheat, Wild [7, 19]: 100 | Oilseed Rape plant response rating [8, 13]: 70 | Plant response rating, Oilseed Rape [8, 14]: 95 | Plant response rating, Oilseed Rape [8, 15]: 100 | Plant response rating (scale of 0 to 100), Oilseed Rape ([8]; Preemergence, 31 g ai/ha): 50 | Plant response rating, Oilseed Rape [8, 16]: 75 | Plant response rating, Oilseed Rape [8, 17]: 100 | Plant response rating, Oilseed Rape [8, 18]: 100 | Plant response rating, Oilseed Rape [8, 19]: 95 | Russian Thistle plant response rating [9, 13]: 80 | Plant response rating, Russian Thistle [9, 14]: 85 | Plant response rating, Russian Thistle [9, 15]: 85 | Plant response rating (scale of 0 to 100), Russian Thistle ([9]; Preemergence, 31 g ai/ha): 0 | Plant response rating, Russian Thistle [9, 16]: 0 | Plant response rating, Russian Thistle [9, 17]: 25 | Plant response rating, Russian Thistle [9, 18]: 35 | Plant response rating, Russian Thistle [9, 19]: 80 | Canarygrass plant response rating [10, 13]: 15 | Plant response rating, Canarygrass [10, 14]: 30 | Plant response rating, Canarygrass [10, 15]: 50 | Plant response rating (scale of 0 to 100), Canarygrass ([10]; Preemergence, 31 g ai/ha): 20 | Plant response rating, Canarygrass [10, 16]: 55 | Plant response rating, Canarygrass [10, 17]: 70 | Plant response rating, Canarygrass [10, 18]: 75 | Plant response rating, Canarygrass [10, 19]: 15 | Barley, Spring plant response rating [11, 13]: 0 | Plant response rating, Barley, Spring [11, 14]: 0 | Plant response rating, Barley, Spring [11, 15]: 0 | Plant response rating (scale of 0 to 100), Barley, Spring ([11]; Preemergence, 31 g ai/ha): 0 | Plant response rating, Barley, Spring [11, 16]: 0 | Plant response rating, Barley, Spring [11, 17]: 0 | Plant response rating, Barley, Spring [11, 18]: 0 | Plant response rating, Barley, Spring [11, 19]: 0 | Kochia plant response rating (kochia (Kochia scoparia); [13]): 95 | Plant response rating, Kochia (kochia (Kochia scoparia); [14]): 100 | Plant response rating, Kochia (kochia (Kochia scoparia); [15]): 100 | Plant response rating (scale of 0 to 100), Kochia (kochia (Kochia scoparia); Preemergence, 31 g ai/ha): 65 | Plant response rating, Kochia (kochia (Kochia scoparia); [16]): 80 | Plant response rating, Kochia (kochia (Kochia scoparia); [17]): 80 | Plant response rating, Kochia (kochia (Kochia scoparia); [18]): 100 | Plant response rating, Kochia (kochia (Kochia scoparia); [19]): 100 | Wheat, Winter plant response rating [12, 13]: 0 | Plant response rating, Wheat, Winter [12, 14]: 0 | Plant response rating, Wheat, Winter [12, 15]: 0 | Plant response rating (scale of 0 to 100), Wheat, Winter ([12]; Preemergence, 31 g ai/ha): 0 | Plant response rating, Wheat, Winter [12, 16]: 0 | Plant response rating, Wheat, Winter [12, 17]: 20 | Plant response rating, Wheat, Winter [12, 18]: 15 | Plant response rating, Wheat, Winter [12, 19]: 0
